Oligonucleotides are written 5' to 3', each unit as a sugar letter and its base; * is a phosphorothioate linkage, no mark a phosphodiester; rarer units and linkages stand in square brackets, end groups in braces. Plain capitals give the bases only. Oligonucleotides are given in HELM: sugar(base)linkage, 5' to 3'; d 2'-deoxyribose, r ribose, m 2'-O-methylribose, p phosphate. ss, as = sense and antisense strand; d = 2'-deoxy (DNA); r = 2'-OH (RNA)
Also: test concentration or dose not given here.

One data set addresses UBE2G1. Put plainly: reporter assay of Huesken 2005. As to conditions: siRNA.
As for “sense rCrArUrUrArCrArGrArArArUrCrUrGrGrCrArCdTdT / antisense rGrUrGrCrCrArGrArUrUrUrCrUrGrUrArArUrGdAdA”, the normalised inhibition (eCFP-eYFP dual reporter) turned out to be 50.1%. On the same count and under the same terms, as for “sense rArGrArUrArCrArCrUrUrUrArUrGrArArGrGrUdTdT / antisense rArCrCrUrUrCrArUrArArArGrUrGrUrArUrCrUdGdG”, the figure is 78.7%; as for “sense rGrUrUrArUrGrArArArArGrCrCrArGrArGrGrAdTdT / antisense rUrCrCrUrCrUrGrGrCrUrUrUrUrCrArUrArArCdCdA”, 49.3%; as for “sense rArArUrGrGrArGrGrGrArArGrArUrArGrArArAdTdT / antisense rUrUrUrCrUrArUrCrUrUrCrCrCrUrCrCrArUrUdCdT”, 85.9%. “sense rUrGrCrGrArArArGrArArUrGrGrArGrGrGrArAdTdT / antisense rUrUrCrCrCrUrCrCrArUrUrCrUrUrUrCrGrCrAdGdC” came in with a normalised inhibition (eCFP-eYFP dual reporter) of 72.7%. The same measure, in the same setting: next, “sense rArCrCrUrCrCrUrArArArArUrGrArArArUrUrCdTdT / antisense rGrArArUrUrUrCrArUrUrUrUrArGrGrArGrGrUdCdG”: 39.5%. Same read-out and setting: next, “sense rCrArArUrGrArUrCrUrCrUrArCrCrGrArUrGrGdTdT / antisense rCrCrArUrCrGrGrUrArGrArGrArUrCrArUrUrGdTdC”: 86.7%; “sense rArUrGrGrUrUrArUrGrArArArArGrCrCrArGrAdTdT / antisense rUrCrUrGrGrCrUrUrUrUrCrArUrArArCrCrArUdAdC”: 39.2%. On the same count and under the same terms, as for “sense rUrCrCrCrUrArUrCrCrArCrArCrUrGrUrGrGrAdTdT / antisense rUrCrCrArCrArGrUrGrUrGrGrArUrArGrGrGrAdGdC”, the figure is 62.1%; as for “sense rArGrCrCrUrGrGrGrGrArArGrArUrArArGrUrAdTdT / antisense rUrArCrUrUrArUrCrUrUrCrCrCrCrArGrGrCrUdCdA”, 78.6%; as for “sense rUrGrGrUrGrArUrGrUrGrUrGrCrArUrUrUrCrUdTdT / antisense rArGrArArArUrGrCrArCrArCrArUrCrArCrCrAdTdT”, 85%.

On to “sense rArCrArCrUrGrUrGrGrArArArCrCrArUrCrArUdTdT / antisense rArUrGrArUrGrGrUrUrUrCrCrArCrArGrUrGrUdGdG”, for which the normalised inhibition (eCFP-eYFP dual reporter) was found to be 89.3%. On the same count and under the same terms, next, “sense rGrGrArArArCrCrArUrCrArUrGrArUrUrArGrUdTdT / antisense rArCrUrArArUrCrArUrGrArUrGrGrUrUrUrCrCdAdC”: 54.4%; “sense rUrArUrCrCrArCrArCrUrGrUrGrGrArArArCrCdTdT / antisense rGrGrUrUrUrCrCrArCrArGrUrGrUrGrGrArUrAdGdG”: 41.2%. For the substance “sense rGrGrUrGrArUrGrUrGrUrGrCrArUrUrUrCrUrAdTdT / antisense rUrArGrArArArUrGrCrArCrArCrArUrCrArCrCdAdT”, the normalised inhibition (eCFP-eYFP dual reporter) is 94.7%. The substance “sense rUrUrUrArArArArGrArArArArGrUrUrGrCrCrCdTdT / antisense rGrGrGrCrArArCrUrUrUrUrCrUrUrUrUrArArAdTdT” came in with a normalised inhibition (eCFP-eYFP dual reporter) of 43.5%. For the substance “sense rGrArGrArArUrUrUrArArArArGrArArArArGrUdTdT / antisense rArCrUrUrUrUrCrUrUrUrUrArArArUrUrCrUrCdCdA”, the normalised inhibition (eCFP-eYFP dual reporter) stood at 56.4%.

For “sense rGrGrArArGrUrCrCrUrUrArUrUrArUrUrGrGrCdTdT / antisense rGrCrCrArArUrArArUrArArGrGrArCrUrUrCrCdCdA”, the normalised inhibition (eCFP-eYFP dual reporter) is 71%. Same read-out and setting: next, “sense rCrUrCrUrArCrCrGrArUrGrGrGrArArGrUrCrCdTdT / antisense rGrGrArCrUrUrCrCrCrArUrCrGrGrUrArGrArGdAdT”: 68.3%; “sense rArArArCrCrArUrCrArUrGrArUrUrArGrUrGrUdTdT / antisense rArCrArCrUrArArUrCrArUrGrArUrGrGrUrUrUdCdC”: 66.9%; “sense rArArUrCrUrGrGrCrArCrCrCrArArArUrGrUrUdTdT / antisense rArArCrArUrUrUrGrGrGrUrGrCrCrArGrArUrUdTdC”: 73.4%.

For “sense rUrCrCrArCrArCrUrGrUrGrGrArArArCrCrArUdTdT / antisense rArUrGrGrUrUrUrCrCrArCrArGrUrGrUrGrGrAdTdA”, the normalised inhibition (eCFP-eYFP dual reporter) is 85.3%. Same read-out and setting: as for “sense rUrUrUrCrUrArUrUrCrUrUrCrArUrGrArGrCrCdTdT / antisense rGrGrCrUrCrArUrGrArArGrArArUrArGrArArAdTdG”, the figure is 29.5%; as for “sense rCrUrCrCrUrArArArArUrGrArArArUrUrCrArUdTdT / antisense rArUrGrArArUrUrUrCrArUrUrUrUrArGrGrArGdGdT”, 87.9%. On the same count and under the same terms, next, “sense rUrGrArArArUrUrCrArUrUrArCrArGrArArArUdTdT / antisense rArUrUrUrCrUrGrUrArArUrGrArArUrUrUrCrAdTdT”: 61.6%.

Substance “sense rCrCrUrGrCrUrArArUrGrUrUrGrArUrGrCrUrGdTdT / antisense rCrArGrCrArUrCrArArCrArUrUrArGrCrArGrGdTdG” had a normalised inhibition (eCFP-eYFP dual reporter) of 97.5%. The same measure, in the same setting: next, “sense rUrGrArUrGrUrGrUrGrCrArUrUrUrCrUrArUrUdTdT / antisense rArArUrArGrArArArUrGrCrArCrArCrArUrCrAdCdC”: 74.8%; “sense rArCrCrUrGrCrUrArArUrGrUrUrGrArUrGrCrUdTdT / antisense rArGrCrArUrCrArArCrArUrUrArGrCrArGrGrUdGdA”: 93.9%. Same read-out and setting: as for “sense rCrArCrCrCrArArArUrGrUrUrGrArUrArArArAdTdT / antisense rUrUrUrUrArUrCrArArCrArUrUrUrGrGrGrUrGdCdC”, the figure is 73.1%. Same read-out and setting: as for “sense rGrCrUrGrCrGrArArArGrArArUrGrGrArGrGrGdTdT / antisense rCrCrCrUrCrCrArUrUrCrUrUrUrCrGrCrArGrCdAdT”, the figure is 63.8%; as for “sense rUrUrCrUrArUrGrCrUrGrGrCrArGrArCrCrCrUdTdT / antisense rArGrGrGrUrCrUrGrCrCrArGrCrArUrArGrArAdAdT”, 61%. Substance “sense rCrArUrGrArGrCrCrUrGrGrGrGrArArGrArUrAdTdT / antisense rUrArUrCrUrUrCrCrCrCrArGrGrCrUrCrArUrGdAdA” registered a normalised inhibition (eCFP-eYFP dual reporter) of 76%. In turn, “sense rArUrUrGrGrCrCrCrUrCrCrArGrArUrArCrArCdTdT / antisense rGrUrGrUrArUrCrUrGrGrArGrGrGrCrCrArArUdAdA” showed a normalised inhibition (eCFP-eYFP dual reporter) of 36.1%. “sense rUrGrCrCrCrGrCrUrGrUrGrUrArArGrArArArAdTdT / antisense rUrUrUrUrCrUrUrArCrArCrArGrCrGrGrGrCrAdAdC”: the normalised inhibition (eCFP-eYFP dual reporter) was 94.3%. With “sense rUrCrCrUrUrArUrUrArUrUrGrGrCrCrCrUrCrCdTdT / antisense rGrGrArGrGrGrCrCrArArUrArArUrArArGrGrAdCdT”, the normalised inhibition (eCFP-eYFP dual reporter) turned out to be 44.7%. Still for that read-out and setting: next, “sense rArUrCrUrCrUrArCrCrGrArUrGrGrGrArArGrUdTdT / antisense rArCrUrUrCrCrCrArUrCrGrGrUrArGrArGrArUdCdA”: 67.7%.

Another data set concerns the target UBE2N. Nature of the data set: reporter assay of Huesken 2005. The settings on record: siRNA. Background: In a reporter assay the amount or activity of a reporter protein is the signal.
In the case of “RNA1{r(U)p.r(U)p.r(G)p.r(G)p.r(G)p.r(A)p.r(A)p.r(G)p.r(A)p.r(A)p.r(U)p.r(A)p.r(U)p.r(G)p.r(U)p.r(C)p.r(U)p.r(A)p.r(G)p.d(T)p.d(T)}|RNA2{r(C)p.r(U)p.r(A)p.r(G)p.r(A)p.r(C)p.r(A)p.r(U)p.r(A)p.r(U)p.r(U)p.r(C)p.r(U)p.r(U)p.r(C)p.r(C)p.r(C)p.r(A)p.r(A)p.d(C)p.d(T)}$$$RNA1{StrandType:ss}|RNA2{StrandType:as}$”, the normalised inhibition (eCFP-eYFP dual reporter) amounted to 52.8%. Still for that read-out and setting: next, “RNA1{r(A)p.r(C)p.r(C)p.r(A)p.r(A)p.r(A)p.r(A)p.r(U)p.r(U)p.r(U)p.r(A)p.r(U)p.r(C)p.r(A)p.r(U)p.r(C)p.r(C)p.r(U)p.r(A)p.d(T)p.d(T)}|RNA2{r(U)p.r(A)p.r(G)p.r(G)p.r(A)p.r(U)p.r(G)p.r(A)p.r(U)p.r(A)p.r(A)p.r(A)p.r(U)p.r(U)p.r(U)p.r(U)p.r(G)p.r(G)p.r(U)p.d(C)p.d(A)}$$$RNA1{StrandType:ss}|RNA2{StrandType:as}$”: 81.6%. “RNA1{r(A)p.r(U)p.r(G)p.r(U)p.r(C)p.r(U)p.r(A)p.r(G)p.r(A)p.r(U)p.r(A)p.r(U)p.r(U)p.r(U)p.r(U)p.r(G)p.r(A)p.r(A)p.r(A)p.d(T)p.d(T)}|RNA2{r(U)p.r(U)p.r(U)p.r(C)p.r(A)p.r(A)p.r(A)p.r(A)p.r(U)p.r(A)p.r(U)p.r(C)p.r(U)p.r(A)p.r(G)p.r(A)p.r(C)p.r(A)p.r(U)p.d(A)p.d(T)}$$$RNA1{StrandType:ss}|RNA2{StrandType:as}$” yielded a normalised inhibition (eCFP-eYFP dual reporter) of 75.9%. Same read-out and setting: as for “RNA1{r(C)p.r(A)p.r(U)p.r(A)p.r(G)p.r(A)p.r(A)p.r(A)p.r(C)p.r(A)p.r(G)p.r(C)p.r(U)p.r(A)p.r(G)p.r(A)p.r(G)p.r(C)p.r(A)p.d(T)p.d(T)}|RNA2{r(U)p.r(G)p.r(C)p.r(U)p.r(C)p.r(U)p.r(A)p.r(G)p.r(C)p.r(U)p.r(G)p.r(U)p.r(U)p.r(U)p.r(C)p.r(U)p.r(A)p.r(U)p.r(G)p.d(G)p.d(C)}$$$RNA1{StrandType:ss}|RNA2{StrandType:as}$”, the figure is 95.3%. The same measure, in the same setting: as for “RNA1{r(G)p.r(C)p.r(A)p.r(A)p.r(A)p.r(U)p.r(G)p.r(A)p.r(U)p.r(G)p.r(U)p.r(A)p.r(G)p.r(C)p.r(G)p.r(G)p.r(A)p.r(G)p.r(C)p.d(T)p.d(T)}|RNA2{r(G)p.r(C)p.r(U)p.r(C)p.r(C)p.r(G)p.r(C)p.r(U)p.r(A)p.r(C)p.r(A)p.r(U)p.r(C)p.r(A)p.r(U)p.r(U)p.r(U)p.r(G)p.r(C)p.d(T)p.d(A)}$$$RNA1{StrandType:ss}|RNA2{StrandType:as}$”, the figure is 49.8%.

For the origin of these results see the OligoGym collection.
